Assay results from patent publication US20090239846A1, “Novel Compounds” (Glaxo Group Limited, priority 2005, published 2009).
pIC50: −log10 of the molar value. Structures can show the parent of a compound that is named as a salt. Where two headings read alike, the source gives them in different places.

Assays:
[1] = test system: IL-8 production by human neutrophils; assay: TNF-stimulated IL-8 production from human neutrophils; format: cell-based; conditions: Neutrophil, bound, read-out: IC50
Procedure: TNF-Stimulated IL-8 Production from Human Neutrophils The effect of test compounds on TNF-stimulated IL8 production by human neutrophils is measured as follows. Neutrophils are prepared from blood obtained from consenting donors, using standard methods. Blood is collected in heparinized syringes and layered over histopaque (30 ml/20 ml). Following centrifugation, the red cell pellet is resuspended in PBS and purified over a dextran gradient. Red blood cells are lysed with water for 40 sec, remaining granulocytes collected by centrifugation and resuspended at 1.5×10̂6 cells/ml. Cells are added (0.5-1 ml) to 48 well plates already containing compound at 1000×final concentration in neat DMSO or 10% DMSO in RPMI1640 with 10% FBS. TNF (final concentration 100 ng/ml) is used as the stimulus. Cells incubated for approximately 20 hrs at 37° C., 5% CO2. Levels of IL-8 in the cell free supernatant are determined by sandwich ELISA, and inhibition relative to a control with DMPO but no compound is calculated.

[2] = test system: influx of neutrophils to the lung in LPS-challenged rats; assay: Rat LPS neutrophilia model; format: in vivo; conditions: LPS aerosol, lavage 4 hours later, in at least one of the range of conditions tested, significance p<0.05
Procedure, shortened: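 Rats pretreated 15 min–24 h with compound or vehicle, given intratracheally (200 ul, isoflurane anaesthesia) as suspension in various vehicles, then exposed to LPS aerosol (100 ug/ml) 15 min. BAL 4 h later; Diffquick-stained differential counts give % inhibition of neutrophils versus no-compound controls at a set concentration and pretreatment time.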

Recombinant human p38α = molecular target: T1, Recombinant human p38α (Homo sapiens, UniProt Q16539); assay: Fluorescence anisotropy kinase binding assay (standard or low volume)
T1 construct: GST; made in house
T1 sequence (Q16539 whole entry): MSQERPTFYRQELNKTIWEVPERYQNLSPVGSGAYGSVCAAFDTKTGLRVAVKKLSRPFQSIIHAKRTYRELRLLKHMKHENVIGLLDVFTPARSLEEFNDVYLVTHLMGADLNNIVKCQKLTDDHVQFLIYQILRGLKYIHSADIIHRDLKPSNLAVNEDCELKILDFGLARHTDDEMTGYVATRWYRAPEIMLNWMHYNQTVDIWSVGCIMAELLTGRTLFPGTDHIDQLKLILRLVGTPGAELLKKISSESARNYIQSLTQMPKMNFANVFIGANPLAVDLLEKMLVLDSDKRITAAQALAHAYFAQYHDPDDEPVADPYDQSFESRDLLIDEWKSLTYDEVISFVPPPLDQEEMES
Procedure, shortened: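 Activated GST-tagged recombinant human p38α (pre-activated with MBP-MKK6 DD) at 12 nM final with 5 nM rhodamine green-labelled pyridinylimidazole tracer in pH 7.5 HEPES/CHAPS/DTT/MgCl2 buffer. Test compound 0.28 nM–16.6 μM or 0.02 nM–25 μM final, 3% or 1.7% DMSO; 30–60 min at room temperature. Fluorescence anisotropy read (ex 485/em 535 nm) for Ki.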

[3] = not more than 50% inhibition at 100 nM
[4] = bound, read-out: apparent pIC50 (converted)

melting point | pIC50 [1, 3] | SMILES | other results
214 to 215 °C |  | Cc1ccc(NC(=O)c2ccsc2)cc1-c1nc(N(C)C)nc2c1CNC(=O)N2c1c(F)cccc1F [Example 12, N-{3-[8-(2,6-difluorophenyl)-2-(dimethylamino)-7-oxo-5,6,7,8-tetrahydropyrimido[4,5-d]pyrimidin-4-yl]-4-methylphenyl}-3-thiophenecarboxamide] | 
199 to 202 °C (dec.) |  | CCOc1nc(-c2cc(NC(=O)c3ccsc3)ccc2C)c2c(n1)N(c1c(F)cccc1F)C(=O)NC2 [Example 13] | 
203 to 207 °C (dec.) |  | CNc1nc(-c2cc(NC(=O)c3ccsc3)ccc2C)c2c(n1)N(c1c(F)cccc1F)C(=O)NC2 [Example 14, N-{3-[8-(2,6-difluorophenyl)-2-(methylamino)-7-oxo-5,6,7,8-tetrahydropyrimido[4,5-d]pyrimidin-4-yl]-4-methylphenyl}-3-thiophenecarboxamide] | 
160 to 165 °C (dec.) |  | Cc1ccc(C(=O)NCc2ccccc2)cc1-c1nc(NC2CC(C)(C)NC(C)(C)C2)nc2c1CNC(=O)N2c1c(F)cccc1F [Example 16, 3-{8-(2,6-Difluorophenyl)-7-oxo-2-[(2,2,6,6-tetramethyl-4-piperidinyl)amino]-5,6,7,8-tetrahydropyrimido[4,5-d]pyrimidin-4-yl}-4-methyl-N-(phenylmethyl)benzamide] | 
257.3 to 262.5 °C |  | CCOc1nc(-c2cc(NC(=O)c3ccc(C)c(F)c3)ccc2C)c2c(n1)N(c1c(F)cccc1F)C(=O)NC2 [Example 25] | 
 |  | Cc1ccc(C(=O)NC(C)C)cc1-c1nc(N2CCC(N3CCN(C)CC3)CC2)nc2c1CNC(=O)N2c1c(F)cccc1F [Example 72, 3-{8-(2,6-difluorophenyl)-2-[4-(4-methyl-1-piperazinyl)-1-piperidinyl]-7-oxo-5,6,7,8-tetrahydropyrimido[4,5-d]pyrimidin-4-yl}-4-methyl-N-(1-methylethyl)benzamide] | pIC50 ([1]; screened at a different top concentration): < 9.00; inhibition of neutrophilia [2]: statistically significant inhibition of neutrophilia
 | < 7.00 | CN(C)CCNc1nc(-c2ccc(C(=O)Nc3ccccc3)cc2)c2c(n1)N(c1c(F)cccc1F)C(=O)NC2 [Example 99, 4-(8-(2,6-difluorophenyl)-2-{[2-(dimethylamino)ethyl]amino}-7-oxo-5,6,7,8-tetrahydropyrimido[4,5-d]-pyrimidin-4-yl)-N-phenylbenzamide trifluoroacetate] | IC50 (Recombinant human p38α; second end given as 'less than', read-out: pIC50, broad range of data upon multiple runs (converted)): ≥ 1.26 µM
 | < 7.00 | CN(C)CCNc1nc(-c2ccc(C(=O)Nc3ccc(F)cc3)cc2)c2c(n1)N(c1c(F)cccc1F)C(=O)NC2 [Example 100, 4-(8-(2,6-difluorophenyl)-2-{[2-(dimethylamino)ethyl]amino}-7-oxo-5,6,7,8-tetrahydropyrimido[4,5-d]pyrimidin-4-yl)-N-(4-fluorophenyl)benzamide trifluoroacetate] | IC50 (Recombinant human p38α; [4]): > 15.8 µM
 | < 7.00 | CN(C)CCNc1nc(-c2ccc(C(=O)N(C)C)cc2)c2c(n1)N(c1c(F)cccc1F)C(=O)NC2 [Example 101, 4-(8-(2,6-difluorophenyl)-2-{[2-(dimethylamino)ethyl]amino}-7-oxo-5,6,7,8-tetrahydropyrimido[4,5-d]pyrimidin-4-yl)-N,N-dimethylbenzamide trifluoroacetate] | IC50 (Recombinant human p38α; [4]): > 15.8 µM
 | < 7.00 | CN(C)CCNc1nc(-c2ccc(C(N)=O)cc2)c2c(n1)N(c1c(F)cccc1F)C(=O)NC2 [Example 103, 4-(8-(2,6-difluorophenyl)-2-{[2-(dimethylamino)ethyl]amino}-7-oxo-5,6,7,8-tetrahydropyrimido[4,5-d]pyrimidin-4-yl)benzamide trifluoroacetate] | IC50 (Recombinant human p38α; [4]): > 15.8 µM
146 to 150 °C (dec.) |  | Cc1ccc(C(=O)NCc2ccccc2)cc1-c1nc(N2CCC(N(C)C(=O)OC(C)(C)C)CC2)nc2c1CNC(=O)N2c1c(F)cccc1F [Example 147, 1,1-dimethylethyl {1-[8-(2,6-difluorophenyl)-4-(2-methyl-5-{[(phenylmethyl)amino]carbonyl}phenyl)-7-oxo-5,6,7,8-tetrahydropyrimido[4,5-d]pyrimidin-2-yl]-4-piperidinyl}methylcarbamate] | 
